Source: patent US10011571B2, “Preparation method for aromatic heterocyclic compound used as selective JAK3 and/or JAK1 kinase inhibitor and application of aromatic heterocyclic compound” (SHENZHEN CHIPSCREEN BIOSCIENCES, LTD., priority 2014, dated 2018)

Legend:
TBK1 = TBK1 (Homo sapiens (Human), UniProt Q9UHD2); test: Eurofins IC50Profiler radiometric kinase assay, TBK1; type: biochemical; details: 9 semilog concentrations
Source text: A proportion of the compounds of the present invention are subjected to kinase profile screening (KinaseProfiler™)) and enzymatic inhibitory activity (IC50Profiler™)) assay by entrusting Eurofins company (http://www.eurofins.com). Besides the kinases in the JAK family, the kinases that have been screened for their activity also include most Group 3F and Group 4 kinases (ITK, BLK, TBK1, VEGFRs, ERBBs, etc.), and blood system related kinases (Zhang J. et al. 2009, Nat. Rev. Cancer., 9: 28-39). The concentration of the test compound for kinase profile screening is 1 μM, and a gradient of 9 semilog concentration gradients are used to determine IC50. Detection is carried out according to standard procedure of Eurofins Company. Briefly, according to the requirements of different kinase reactions, 0.2 μL test compound (50 μM, dissolved in dimethyl sulfoxide (DMSO)) is added to reaction buffer containing specific kinase (the buffer system containing 20 mM MOPS, 1 mM EDTA, 0.01% Brij-35, 5% Glycerol, 0.1% β-mercaptoethanol, 1 mg/mL BSA, or 50 mM TRIS, 0.1 mM EGTA, 0.1 mM Na3VO4, 0.1% β-mercaptoethanol, 1 mg/mL BSA, based on the type of kinase used). Subsequently, a kinase specific substrate at a final concentration of 50 μM (specific substrate used for specific kinase), 10 mM Mg Acetate and isotope-labeled γ-^33P ATP (radio-activity of about 500 cpm/pmol) are sequentially added to a total volume of 10 μL for the reaction system. After incubation at room temperature for 40 min, the reaction is terminated by adding 3% phosphoric acid solution. The mixture is then transferred to a filter-type low temperature spray dryer (P30 filtermat), and washed by 75 mM phosphoric acid solution for 3 times and by methanol once. After drying, radio-activity is detected. For specific procedure, see the standard procedure provided by Eurofins Company: http://www.eurofins.com/media/9724077/kinaseprofiler_assay_protocol_guide_eurofins_v64.pdf).

JAK1 = JAK1 (Homo sapiens (Human), UniProt P23458); test: Z'-LYTE enzymatic activity detection, JAK1; type: biochemical; details: test compound 300 nM; for inhibition at 0.3 µM: read-out: JAK1 % inhibitory rate @300 nM
Sequence of JAK1 (P23458 whole entry): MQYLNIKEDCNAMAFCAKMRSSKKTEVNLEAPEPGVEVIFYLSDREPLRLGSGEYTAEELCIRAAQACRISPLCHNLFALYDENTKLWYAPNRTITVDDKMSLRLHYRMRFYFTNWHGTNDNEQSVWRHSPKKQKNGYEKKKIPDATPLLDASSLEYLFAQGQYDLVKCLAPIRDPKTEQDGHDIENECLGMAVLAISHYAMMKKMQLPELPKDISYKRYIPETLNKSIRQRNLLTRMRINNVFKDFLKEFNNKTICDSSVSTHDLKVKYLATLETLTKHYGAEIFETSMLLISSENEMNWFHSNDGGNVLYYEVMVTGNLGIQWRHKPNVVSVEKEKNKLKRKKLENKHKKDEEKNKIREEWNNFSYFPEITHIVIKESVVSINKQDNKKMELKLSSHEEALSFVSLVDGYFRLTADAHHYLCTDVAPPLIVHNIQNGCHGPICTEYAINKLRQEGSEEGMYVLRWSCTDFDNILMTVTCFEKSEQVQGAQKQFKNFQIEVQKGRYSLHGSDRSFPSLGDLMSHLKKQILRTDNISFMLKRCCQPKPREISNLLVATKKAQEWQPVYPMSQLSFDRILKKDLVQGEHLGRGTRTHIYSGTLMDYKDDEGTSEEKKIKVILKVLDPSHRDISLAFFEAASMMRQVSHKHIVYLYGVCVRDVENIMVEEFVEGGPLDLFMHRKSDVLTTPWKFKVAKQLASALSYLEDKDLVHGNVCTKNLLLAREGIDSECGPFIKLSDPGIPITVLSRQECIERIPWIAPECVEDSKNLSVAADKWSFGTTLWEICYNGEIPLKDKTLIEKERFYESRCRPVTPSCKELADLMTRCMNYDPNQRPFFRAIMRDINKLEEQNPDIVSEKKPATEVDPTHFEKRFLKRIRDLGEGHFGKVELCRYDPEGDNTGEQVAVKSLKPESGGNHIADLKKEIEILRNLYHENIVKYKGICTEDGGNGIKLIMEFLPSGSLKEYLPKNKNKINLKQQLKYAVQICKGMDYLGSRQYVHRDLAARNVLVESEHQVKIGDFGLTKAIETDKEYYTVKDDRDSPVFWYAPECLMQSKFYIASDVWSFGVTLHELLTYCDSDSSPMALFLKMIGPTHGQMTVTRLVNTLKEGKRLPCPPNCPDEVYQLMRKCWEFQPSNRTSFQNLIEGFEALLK
In short: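 GST-tagged human recombinant kinases with Z′-LYTE peptides (Tyr6 for JAK1, Tyr4 for JAK2 and JAK3), ATP from kit, reacted 1 h at room temperature; development 1 h, ratio 445/520 nm at 400 nm excitation gives phosphorylation. Inhibition vs solvent control at 30 nM (JAK2, JAK3) or 300 nM (JAK1); tofacitinib as positive control.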

Sequence of TBK1 (Q9UHD2 whole entry, species assumed): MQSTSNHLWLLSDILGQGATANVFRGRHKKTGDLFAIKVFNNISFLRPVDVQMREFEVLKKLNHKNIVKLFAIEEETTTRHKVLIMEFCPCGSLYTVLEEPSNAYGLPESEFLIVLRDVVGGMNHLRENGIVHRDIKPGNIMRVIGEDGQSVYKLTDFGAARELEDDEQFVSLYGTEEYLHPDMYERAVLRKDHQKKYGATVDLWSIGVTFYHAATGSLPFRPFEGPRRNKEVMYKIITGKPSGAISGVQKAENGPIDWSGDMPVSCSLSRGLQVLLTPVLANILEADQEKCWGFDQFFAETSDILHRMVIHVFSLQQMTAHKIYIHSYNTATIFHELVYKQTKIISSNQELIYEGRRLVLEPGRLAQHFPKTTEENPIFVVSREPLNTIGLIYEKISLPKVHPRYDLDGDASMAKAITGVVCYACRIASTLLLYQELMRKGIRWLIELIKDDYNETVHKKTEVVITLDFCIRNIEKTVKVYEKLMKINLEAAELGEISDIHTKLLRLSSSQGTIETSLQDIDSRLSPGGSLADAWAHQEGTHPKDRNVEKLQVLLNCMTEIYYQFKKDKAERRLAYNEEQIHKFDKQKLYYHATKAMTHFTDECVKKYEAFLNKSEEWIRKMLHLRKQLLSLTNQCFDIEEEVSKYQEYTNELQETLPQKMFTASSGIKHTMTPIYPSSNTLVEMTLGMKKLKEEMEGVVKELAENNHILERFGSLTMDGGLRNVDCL

SMILES	IC50 (TBK1) [nM]	JAK1 RV (ratio between the inhibitory rate of the test compound and that of Xeljanz) (JAK1)	inhibition at 0.3 µM (JAK1) [%]
C=CC(=O)N(C)c1cc(Nc2ncc(Cl)c(NCCCNC(=O)c3ccc(F)cc3)n2)ccc1F [Example 23, N-(3-(5-chloro-2-(4-fluoro-3-(N-methylacrylamido)phenylamino)pyrimidinyl-4-amino)propyl)-4-fluorobenzamide]	664	0.35	19
C=CC(=O)N(C)c1cc(Nc2ncc(Cl)c(NCCCNC(=O)c3ccc(C(F)(F)F)cc3)n2)ccc1F [Example 22, N-(3-(5-chloro-2-(4-fluoro-3-(N-methylacrylamido)phenylamino)pyrimidinyl-4-amino)propyl)-4-trifluoromethylbenzamide]	> 10000	0.33	18
C=CC(=O)N(C)c1cc(Nc2ncc(Cl)c(NCCCNC(=O)c3ccc(C#N)cc3)n2)ccc1F [Example 7, N-(3-(5-chloro-2-(4-fluoro-3-(N-methylacrylamido)phenylamino)pyrimidinyl-4-amino)propyl)-4-cyano-benzamide]	162	0.58	56
